In PubChem BioAssay AID1918994 (Molecular Pharmacology Branch, DTP, NCI, 2023):

System: 292921-168-R-J2-PDC complex spheroid growth
Assay: Anticancer human tumor 292921-168-R-J2-PDC patient-derived pancreatic carcinoma cell line growth inhibition [AhR]
Conditions: for IC50: curve of first compound; for viability, T/C: stronger effect = lower value; active means viability on the fitted dose curve at most 10% of control; inactive means the rest
Procedure, shortened: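 Spheroids combined tumor cells with HUVEC endothelial cells and human MSCs as stroma. AhR antagonists were paired with standard or investigational drugs, each dosed in half-log steps down from near clinical Cmax, or from 10 microM where Cmax was unknown.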

[1] = second compound 0.1 µM, first compound 0.0316 µM
[2] = second compound 0.1 µM, first compound 0.1 µM
[3] = second compound 0.316 µM, first compound 0.0316 µM
[4] = second compound 0.316 µM, first compound 0.1 µM
[5] = second compound 1 µM, first compound 0.0316 µM
[6] = second compound 1 µM, first compound 0.1 µM
[7] = second compound 3.16 µM, first compound 0.0316 µM
[8] = second compound 3.16 µM, first compound 0.1 µM
[9] = second compound 10 µM, first compound 0.0316 µM
[10] = second compound 10 µM, first compound 0.1 µM
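Further: spheroids exposed to compounds for seven days after three days of growth.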

Cn1ncnc1C1c2n[nH]c(=O)c3cc(F)cc(c23)NC1c1ccc(F)cc1 (stereo not given) + Cc1ccccc1N=Nc1ccc(NC(=O)c2ccnn2C)c(C)c1
inactive: viability, T/C (second compound 0.1 µM, first compound 0.000316 µM) 96.1% | viability, T/C (second compound 0.1 µM, first compound 0.001 µM) 83% | viability, T/C (second compound 0.1 µM, first compound 0.00316 µM) 83.2% | viability, T/C (second compound 0.1 µM, first compound 0.01 µM) 85.7% | viability, T/C [1] 87.8% | viability, T/C [2] 82.6% | viability, T/C (second compound 0.316 µM, first compound 0.000316 µM) 90.9% | viability, T/C (second compound 0.316 µM, first compound 0.001 µM) 76.6% | viability, T/C (second compound 0.316 µM, first compound 0.00316 µM) 86.4% | viability, T/C (second compound 0.316 µM, first compound 0.01 µM) 74.8% | viability, T/C [3] 73.8% | viability, T/C [4] 86.2% | viability, T/C (second compound 1 µM, first compound 0.000316 µM) 78.6% | viability, T/C (second compound 1 µM, first compound 0.001 µM) 81% | viability, T/C (second compound 1 µM, first compound 0.00316 µM) 80.3% | viability, T/C (second compound 1 µM, first compound 0.01 µM) 81.3% | viability, T/C [5] 87.8% | viability, T/C [6] 74.1% | viability, T/C (second compound 3.16 µM, first compound 0.000316 µM) 80.9% | viability, T/C (second compound 3.16 µM, first compound 0.001 µM) 76.2% | viability, T/C (second compound 3.16 µM, first compound 0.00316 µM) 76.3% | viability, T/C (second compound 3.16 µM, first compound 0.01 µM) 75.1% | viability, T/C [7] 72.5% | viability, T/C [8] 59.6% | viability, T/C (second compound 10 µM, first compound 0.000316 µM) 64% | viability, T/C (second compound 10 µM, first compound 0.001 µM) 68.5% | viability, T/C (second compound 10 µM, first compound 0.00316 µM) 51.8% | viability, T/C (second compound 10 µM, first compound 0.01 µM) 61.7% | viability, T/C [9] 53.3% | viability, T/C [10] 52.8%
> 100 nM: IC50 (second compound 0.1 µM) | IC50 (second compound 0.316 µM) | IC50 (second compound 1 µM) | IC50 (second compound 3.16 µM) | IC50 (second compound 10 µM)

NS(=O)(=O)OCC1CC(n2ccc3c(NC4CCc5ccccc54)ncnc32)CC1O (stereo not given) + Cc1ccccc1N=Nc1ccc(NC(=O)c2ccnn2C)c(C)c1
189 nM: IC50 (second compound 0.1 µM)
115 nM: IC50 (second compound 10 µM)
138 nM: IC50 (second compound 3.16 µM)
168 nM: IC50 (second compound 0.316 µM)
active: viability, T/C (second compound 0.1 µM, first compound 1 µM) 4.4% | viability, T/C (second compound 0.1 µM, first compound 3.16 µM) 3.09% | viability, T/C (second compound 0.1 µM, first compound 10 µM) 2.81% | viability, T/C (second compound 0.316 µM, first compound 1 µM) 4.5% | viability, T/C (second compound 0.316 µM, first compound 3.16 µM) 4.78% | viability, T/C (second compound 0.316 µM, first compound 10 µM) 3.59% | viability, T/C (second compound 1 µM, first compound 1 µM) 6.04% | viability, T/C (second compound 1 µM, first compound 3.16 µM) 3.96% | viability, T/C (second compound 1 µM, first compound 10 µM) 5.05% | viability, T/C (second compound 3.16 µM, first compound 1 µM) 4.58% | viability, T/C (second compound 3.16 µM, first compound 3.16 µM) 8.31% | viability, T/C (second compound 3.16 µM, first compound 10 µM) 2.91% | viability, T/C (second compound 10 µM, first compound 1 µM) 5.55% | viability, T/C (second compound 10 µM, first compound 3.16 µM) 3.67% | viability, T/C (second compound 10 µM, first compound 10 µM) 2.58%
inactive: viability, T/C [1] 122% | viability, T/C [2] 88.3% | viability, T/C (second compound 0.1 µM, first compound 0.316 µM) 19.3% | viability, T/C [3] 128% | viability, T/C [4] 77.9% | viability, T/C (second compound 0.316 µM, first compound 0.316 µM) 15.7% | viability, T/C [5] 111% | viability, T/C [6] 73.6% | viability, T/C (second compound 1 µM, first compound 0.316 µM) 16.2% | viability, T/C [7] 100% | viability, T/C [8] 64% | viability, T/C (second compound 3.16 µM, first compound 0.316 µM) 13.8% | viability, T/C [9] 88.9% | viability, T/C [10] 55.2% | viability, T/C (second compound 10 µM, first compound 0.316 µM) 13.7%
161 nM: IC50 (second compound 1 µM)

Nc1ncn(C2CC(O)C(CO)S2)c(=O)n1 (stereo not given) + Cc1ccccc1N=Nc1ccc(NC(=O)c2ccnn2C)c(C)c1
inactive: viability, T/C (second compound 0.1 µM, first compound 0.000949 µM) 96.1% | viability, T/C (second compound 0.1 µM, first compound 0.003 µM) 91.2% | viability, T/C (second compound 0.1 µM, first compound 0.00949 µM) 86.3% | viability, T/C (second compound 0.1 µM, first compound 0.03 µM) 93% | viability, T/C (second compound 0.1 µM, first compound 0.0949 µM) 91.1% | viability, T/C (second compound 0.1 µM, first compound 0.3 µM) 77.5% | viability, T/C (second compound 0.316 µM, first compound 0.000949 µM) 87.6% | viability, T/C (second compound 0.316 µM, first compound 0.003 µM) 92.3% | viability, T/C (second compound 0.316 µM, first compound 0.00949 µM) 93.3% | viability, T/C (second compound 0.316 µM, first compound 0.03 µM) 81.5% | viability, T/C (second compound 0.316 µM, first compound 0.0949 µM) 82.6% | viability, T/C (second compound 0.316 µM, first compound 0.3 µM) 76.6% | viability, T/C (second compound 1 µM, first compound 0.000949 µM) 83.6% | viability, T/C (second compound 1 µM, first compound 0.003 µM) 85% | viability, T/C (second compound 1 µM, first compound 0.00949 µM) 80.7% | viability, T/C (second compound 1 µM, first compound 0.03 µM) 83.8% | viability, T/C (second compound 1 µM, first compound 0.0949 µM) 90% | viability, T/C (second compound 1 µM, first compound 0.3 µM) 78.5% | viability, T/C (second compound 3.16 µM, first compound 0.000949 µM) 68.6% | viability, T/C (second compound 3.16 µM, first compound 0.003 µM) 66.1% | viability, T/C (second compound 3.16 µM, first compound 0.00949 µM) 72.4% | viability, T/C (second compound 3.16 µM, first compound 0.03 µM) 79.9% | viability, T/C (second compound 3.16 µM, first compound 0.0949 µM) 82.2% | viability, T/C (second compound 3.16 µM, first compound 0.3 µM) 64.1% | viability, T/C (second compound 10 µM, first compound 0.000949 µM) 64% | viability, T/C (second compound 10 µM, first compound 0.003 µM) 56.1% | viability, T/C (second compound 10 µM, first compound 0.00949 µM) 59% | viability, T/C (second compound 10 µM, first compound 0.03 µM) 62.7% | viability, T/C (second compound 10 µM, first compound 0.0949 µM) 61.6% | viability, T/C (second compound 10 µM, first compound 0.3 µM) 57.1%
> 300 nM: IC50 (second compound 0.1 µM) | IC50 (second compound 0.316 µM) | IC50 (second compound 1 µM) | IC50 (second compound 3.16 µM) | IC50 (second compound 10 µM)
